In paper PMC6825221, “In silico re-engineering of a neurotransmitter to activate KCNQ potassium channels in an isoform-specific manner” (Communications Biology, 2019):
Values joined by “and” are separate entries in the source; they are usually repeats but may differ in a detail not shown here. Identical values can stand only once. “Also recorded” adds a separate entry of the source. Like-named read-outs stand apart in the source and are kept apart here.

Experiments:
[1] = molecular target: T1, KCNQ3* (Homo sapiens, UniProt O43525, A315T); test: TEVC of homomeric KCNQ3* (A315T KCNQ3 mutant) expressed in Xenopus oocytes; assay type: cell-based; conditions: dose response
Text: We next validated the in silico predictions using two-electrode voltage clamp of homomeric neuronal KCNQ2-5 channel isoforms expressed in Xenopus laevis oocytes. […] As in previous studies[8],[10], we used the A315T KCNQ3 mutant (KCNQ3*) that ensures large enough currents to accurately quantify voltage dependence and pharmacology of homomeric KCNQ3[16].
(§1) We generated cRNA transcripts encoding human KCNQ1, KCNQ2, KCNQ3, KCNQ4, KCNQ5 or GLRA1 (NM_001146040) (GenScript, Piscataway, NJ, USA) by in vitro transcription using the T7 polymerase mMessage mMachine kit (Thermo Fisher Scientific), after vector linearization, from cDNA sub-cloned into plasmids incorporating Xenopus laevis β-globin 5′ and 3′ UTRs flanking the coding region to enhance translation and cRNA stability. We quantified cRNA by spectrophotometry. We generated mutant KCNQ2 and KCNQ3 cDNAs by site-directed mutagenesis using a QuikChange kit (Stratagene, San Diego, CA) and prepared the corresponding cRNAs as above. We injected defolliculated stage V and VI Xenopus laevis oocytes (Ecocyte Bioscience, Austin, TX and Xenoocyte, Dexter, MI) with KCNQ channel α subunit (5-20 ng) or GLRA1 (20 ng) cRNAs. We incubated the oocytes at 16 °C in Barth’s saline solution (Ecocyte Bioscience) containing penicillin and streptomycin, with daily washing, for 2–5 days prior to two-electrode voltage-clamp (TEVC) recording.
(§2) We performed TEVC at room temperature using an OC-725C amplifier (Warner Instruments, Hamden, CT) and pClamp10 software (Molecular Devices, Sunnyvale, CA) 2–5 days after cRNA injection as described in the section above. For recording, oocytes were placed in a small-volume oocyte bath (Warner) and viewed them with a dissection microscope. Chemicals were sourced from Sigma, Matrix Scientific and Santa Cruz. […] All stock solutions were diluted in bath solution on the day of experiments. KCNQ2/3 channel activation was screened for using either 30 µM or 100 µM concentrations of each of the six compounds, then dose responses were conducted as appropriate. Bath solution was (in mM): 96 NaCl, 4 KCl, 1 MgCl2, 1 CaCl2, 10 HEPES (pH 7.6). Compounds were introduced into the oocyte recording bath by gravity perfusion at a constant flow of 1 ml per minute for 3 min prior to recording. Pipettes were of 1–2 MΩ resistance when filled with 3 M KCl. Currents were recorded in response to voltage pulses between −120 or −80 mV and + 40 mV at 20 mV intervals from a holding potential of −80 mV, to yield current-voltage relationships, current magnitude, and for quantifying activation rate. We analyzed data using Clampfit (Molecular Devices) and Graphpad Prism software (GraphPad, San Diego, CA, USA); values are stated as mean ± SEM. […]

[2] = molecular target: T2, KCNQ1 (Homo sapiens, UniProt P51787); test: TEVC of homomeric KCNQ1 expressed in Xenopus oocytes; assay type: cell-based
Text: as §1
as §2, with “Bath solution was (in mM): 96 NaCl, 4 KCl, 1 MgCl2, 1 CaCl2, 10 HEPES (pH 7.6). Compounds were introduced into the oocyte recording bath by gravity perfusion at a constant flow of 1 ml per minute for 3 min prior to recording. Pipettes were of 1–2 MΩ resistance when filled with 3 M KCl.” left out

[3] = molecular target: T3, KCNQ5 (Homo sapiens, UniProt Q9NR82); test: TEVC of homomeric KCNQ5 expressed in Xenopus oocytes; assay type: cell-based; conditions: dose response
Text: as §1
as §2, with “Bath solution was (in mM): 96 NaCl, 4 KCl, 1 MgCl2, 1 CaCl2, 10 HEPES (pH 7.6). Compounds were introduced into the oocyte recording bath by gravity perfusion at a constant flow of 1 ml per minute for 3 min prior to recording. Pipettes were of 1–2 MΩ resistance when filled with 3 M KCl.” left out

[4] = molecular target: T4, KCNQ2/3 (Homo sapiens, UniProt O43525+O43526); test: TEVC of KCNQ2/3 channels expressed in Xenopus oocytes; assay type: cell-based; conditions: TEVC in oocytes; for EC50: shift in voltage dependence of activation (ΔV0.5act)
Text: as §1, with “We generated mutant KCNQ2 and KCNQ3 cDNAs by site-directed mutagenesis using a QuikChange kit (Stratagene, San Diego, CA) and prepared the corresponding cRNAs as above.” left out
(§3) For recording, oocytes were placed in a small-volume oocyte bath (Warner) and viewed them with a dissection microscope. Chemicals were sourced from Sigma, Matrix Scientific and Santa Cruz. […] All stock solutions were diluted in bath solution on the day of experiments. KCNQ2/3 channel activation was screened for using either 30 µM or 100 µM concentrations of each of the six compounds, then dose responses were conducted as appropriate. Bath solution was (in mM): 96 NaCl, 4 KCl, 1 MgCl2, 1 CaCl2, 10 HEPES (pH 7.6). Compounds were introduced into the oocyte recording bath by gravity perfusion at a constant flow of 1 ml per minute for 3 min prior to recording. Pipettes were of 1–2 MΩ resistance when filled with 3 M KCl. Currents were recorded in response to voltage pulses between −120 or −80 mV and + 40 mV at 20 mV intervals from a holding potential of −80 mV, to yield current-voltage relationships, current magnitude, and for quantifying activation rate. We analyzed data using Clampfit (Molecular Devices) and Graphpad Prism software (GraphPad, San Diego, CA, USA); values are stated as mean ± SEM. We plotted raw or normalized tail currents versus prepulse voltage and fitted with a single Boltzmann function:1 g=(A1−A2)/1+exp(V12−V)∕VS+A2, where g is the normalized tail conductance, A1 is the initial value at −∞, A2 is the final value at +∞, V1/2 is the half-maximal voltage of activation and Vs the slope factor. Activation, deactivation, wash-in and washout kinetics were fitted with single exponential functions to yield a τ value.

[5] = molecular target: KCNQ4 (Homo sapiens, UniProt P56696); test: TEVC of homomeric KCNQ4 expressed in Xenopus oocytes; assay type: cell-based; conditions: for effects on KCNQ4: dose response
Text: as §1
as §3, with “We performed TEVC at room temperature using an OC-725C amplifier (Warner Instruments, Hamden, CT) and pClamp10 software (Molecular Devices, Sunnyvale, CA) 2–5 days after cRNA injection as described in the section above. For” for “For”

[6] = molecular target: T5, KCNQ2 (Homo sapiens, UniProt O43526); test: TEVC of homomeric KCNQ2 expressed in Xenopus oocytes; assay type: cell-based
Text: as §1, with “We generated mutant KCNQ2 and KCNQ3 cDNAs by site-directed mutagenesis using a QuikChange kit (Stratagene, San Diego, CA) and prepared the corresponding cRNAs as above.” left out
as §3

[7] = molecular target: T1, KCNQ3*; design: method as in PMID 29748663; conditions: cited from earlier work
[8] = molecular target: T1, KCNQ3*; test: [3H]GABA binding and competition, oocytes expressing KCNQ3*
Method: (§4) Oocytes were then washed four times in 16 °C ND96, transferred to individual wells in a 96 well plate and lysed in 0.2% SDS in ND96. Each oocyte lysate was transferred to a scintillation vial containing 5 ml Cytoscint scintillation cocktail fluid (MP Biomedicals, Santa Ana, CA). Vials were capped, shaken, and then allowed to sit at room temperature for at least 30 min before scintillation counting in a Beckmann Coulter LS6500 liquid scintillation counter.

[9] = molecular target: T3, KCNQ5; design: method as in PMID 29748663; conditions: cited from earlier work
[10] = molecular target: T5, KCNQ2; design: method as in PMID 30021858; conditions: cited from earlier work
[11] = molecular target: T4, KCNQ2/3
Method: as §4

[12] = molecular target: T6, GLRA1 (Homo sapiens, UniProt P23415); test: TEVC of glycine receptor GLRA1 expressed in Xenopus oocytes; assay type: cell-based; conditions: 1 mM, compound alone
T6 sequence (P23415 29-457): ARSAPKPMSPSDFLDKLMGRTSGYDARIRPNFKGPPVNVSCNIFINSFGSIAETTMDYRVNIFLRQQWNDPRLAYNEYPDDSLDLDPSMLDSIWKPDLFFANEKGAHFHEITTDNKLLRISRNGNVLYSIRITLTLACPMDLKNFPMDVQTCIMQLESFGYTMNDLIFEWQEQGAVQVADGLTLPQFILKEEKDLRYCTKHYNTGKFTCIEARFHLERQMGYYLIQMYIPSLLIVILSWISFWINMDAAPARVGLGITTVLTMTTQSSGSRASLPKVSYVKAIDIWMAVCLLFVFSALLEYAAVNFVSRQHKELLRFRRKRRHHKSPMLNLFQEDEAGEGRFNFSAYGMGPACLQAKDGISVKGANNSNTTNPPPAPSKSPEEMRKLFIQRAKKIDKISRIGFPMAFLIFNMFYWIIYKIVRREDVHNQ
Text: as §1
as §3, with “We performed TEVC at room temperature using an OC-725C amplifier (Warner Instruments, Hamden, CT) and pClamp10 software (Molecular Devices, Sunnyvale, CA) 2–5 days after cRNA injection as described in the section above. For” for “For”

[13] = molecular target: T7, KCNQ3*-R242A (Homo sapiens, UniProt O43525, A315T/R242A); test: TEVC of homomeric KCNQ3*-R242A; assay type: cell-based; conditions: 100 µM
T7 sequence (O43525 1-872 R242A/A315T): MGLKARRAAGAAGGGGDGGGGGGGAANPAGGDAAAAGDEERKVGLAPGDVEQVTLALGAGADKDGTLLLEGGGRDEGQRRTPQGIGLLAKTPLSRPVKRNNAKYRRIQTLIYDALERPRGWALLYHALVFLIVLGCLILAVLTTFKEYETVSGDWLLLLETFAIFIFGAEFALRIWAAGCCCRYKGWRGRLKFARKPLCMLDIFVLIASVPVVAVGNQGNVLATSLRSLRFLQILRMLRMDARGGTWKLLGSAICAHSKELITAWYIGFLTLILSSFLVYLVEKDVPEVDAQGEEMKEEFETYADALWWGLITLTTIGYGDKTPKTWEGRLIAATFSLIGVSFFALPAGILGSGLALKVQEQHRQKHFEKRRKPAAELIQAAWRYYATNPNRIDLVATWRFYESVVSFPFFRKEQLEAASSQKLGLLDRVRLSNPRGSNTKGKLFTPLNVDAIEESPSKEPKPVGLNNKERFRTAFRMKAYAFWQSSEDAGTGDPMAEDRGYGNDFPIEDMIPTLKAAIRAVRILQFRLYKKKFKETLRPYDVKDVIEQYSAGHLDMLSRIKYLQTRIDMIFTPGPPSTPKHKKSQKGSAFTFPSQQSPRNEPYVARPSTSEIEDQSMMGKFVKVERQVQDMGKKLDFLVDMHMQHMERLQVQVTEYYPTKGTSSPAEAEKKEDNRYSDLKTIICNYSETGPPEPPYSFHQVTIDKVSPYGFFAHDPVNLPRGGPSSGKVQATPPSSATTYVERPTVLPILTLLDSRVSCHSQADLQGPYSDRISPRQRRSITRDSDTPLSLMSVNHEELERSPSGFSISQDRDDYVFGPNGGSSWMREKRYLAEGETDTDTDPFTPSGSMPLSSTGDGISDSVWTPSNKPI
Text: We generated cRNA transcripts encoding human KCNQ1, KCNQ2, KCNQ3, KCNQ4, KCNQ5 or GLRA1 (NM_001146040) (GenScript, Piscataway, NJ, USA) by in vitro transcription using the T7 polymerase mMessage mMachine kit (Thermo Fisher Scientific), after vector linearization, from cDNA sub-cloned into plasmids incorporating Xenopus laevis β-globin 5′ and 3′ UTRs flanking the coding region to enhance translation and cRNA stability. We quantified cRNA by spectrophotometry. We generated mutant KCNQ2 and KCNQ3 cDNAs by site-directed mutagenesis using a QuikChange kit (Stratagene, San Diego, CA) and prepared the corresponding cRNAs as above. […]
We performed TEVC at room temperature using an OC-725C amplifier (Warner Instruments, Hamden, CT) and pClamp10 software (Molecular Devices, Sunnyvale, CA) 2–5 days after cRNA injection as described in the section above. […] Currents were recorded in response to voltage pulses between −120 or −80 mV and + 40 mV at 20 mV intervals from a holding potential of −80 mV, to yield current-voltage relationships, current magnitude, and for quantifying activation rate. We analyzed data using Clampfit (Molecular Devices) and Graphpad Prism software (GraphPad, San Diego, CA, USA); values are stated as mean ± SEM. […]

[14] = molecular target: T2, KCNQ1; conditions: cited from earlier work

T4 sequence (O43525 whole entry): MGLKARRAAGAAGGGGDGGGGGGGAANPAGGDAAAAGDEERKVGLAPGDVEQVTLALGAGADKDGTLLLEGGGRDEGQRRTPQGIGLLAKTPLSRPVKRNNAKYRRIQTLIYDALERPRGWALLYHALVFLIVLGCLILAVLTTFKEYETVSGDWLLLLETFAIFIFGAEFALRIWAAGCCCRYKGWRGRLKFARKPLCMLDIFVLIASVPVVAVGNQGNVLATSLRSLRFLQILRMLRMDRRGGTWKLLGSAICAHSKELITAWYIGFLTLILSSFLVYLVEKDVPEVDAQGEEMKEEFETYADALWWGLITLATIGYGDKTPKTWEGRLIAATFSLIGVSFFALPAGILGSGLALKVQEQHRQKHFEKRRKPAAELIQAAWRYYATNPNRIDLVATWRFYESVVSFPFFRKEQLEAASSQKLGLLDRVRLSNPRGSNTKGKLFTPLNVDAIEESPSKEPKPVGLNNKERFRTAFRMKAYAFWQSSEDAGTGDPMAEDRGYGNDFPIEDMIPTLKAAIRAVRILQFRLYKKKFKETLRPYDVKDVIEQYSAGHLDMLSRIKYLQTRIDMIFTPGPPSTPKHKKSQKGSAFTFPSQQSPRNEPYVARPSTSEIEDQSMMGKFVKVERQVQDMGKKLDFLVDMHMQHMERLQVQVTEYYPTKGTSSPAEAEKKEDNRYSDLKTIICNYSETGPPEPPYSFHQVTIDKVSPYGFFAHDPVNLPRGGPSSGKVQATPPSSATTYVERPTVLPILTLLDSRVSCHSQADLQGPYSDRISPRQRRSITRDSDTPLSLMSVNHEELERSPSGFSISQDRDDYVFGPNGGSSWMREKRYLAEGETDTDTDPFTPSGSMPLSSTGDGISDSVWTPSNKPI
T4 sequence (O43526 whole entry): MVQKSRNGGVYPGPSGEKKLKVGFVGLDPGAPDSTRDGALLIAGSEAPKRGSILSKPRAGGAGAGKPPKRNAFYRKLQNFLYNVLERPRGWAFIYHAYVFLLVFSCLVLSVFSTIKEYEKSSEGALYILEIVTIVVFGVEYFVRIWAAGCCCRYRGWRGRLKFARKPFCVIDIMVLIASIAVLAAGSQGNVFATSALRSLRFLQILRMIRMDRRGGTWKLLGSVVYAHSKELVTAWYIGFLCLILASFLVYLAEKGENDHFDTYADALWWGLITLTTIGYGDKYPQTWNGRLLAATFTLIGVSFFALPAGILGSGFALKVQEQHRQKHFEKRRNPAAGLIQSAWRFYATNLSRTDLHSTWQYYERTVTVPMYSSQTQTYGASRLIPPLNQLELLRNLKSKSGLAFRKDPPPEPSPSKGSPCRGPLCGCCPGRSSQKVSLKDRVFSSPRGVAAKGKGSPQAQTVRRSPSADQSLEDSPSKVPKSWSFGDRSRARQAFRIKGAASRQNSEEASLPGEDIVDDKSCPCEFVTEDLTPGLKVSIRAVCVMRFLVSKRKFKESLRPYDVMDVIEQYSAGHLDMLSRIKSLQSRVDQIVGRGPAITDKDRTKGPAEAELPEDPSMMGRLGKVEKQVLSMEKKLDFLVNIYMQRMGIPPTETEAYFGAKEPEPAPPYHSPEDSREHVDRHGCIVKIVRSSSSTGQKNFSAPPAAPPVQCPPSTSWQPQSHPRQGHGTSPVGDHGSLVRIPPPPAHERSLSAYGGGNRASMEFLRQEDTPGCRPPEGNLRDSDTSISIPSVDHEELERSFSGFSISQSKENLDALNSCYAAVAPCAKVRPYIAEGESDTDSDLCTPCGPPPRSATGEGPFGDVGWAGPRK

In the case of `NC(C(=O)O)c1ccc(F)cc1` (stereo not drawn) [4FPG, 4-(fluorophenyl)glycine], the “effects on KCNQ3*” value [1] is reported as “no effects”, the “KCNQ1 activation and deactivation rates” value ([2]; 30 µM) is reported as “slowed KCNQ1 deactivation but did not speed its activation” and the EC50 ([2]; ΔV0.5act, read-out: EC50, KCNQ1 activation) is reported as 0.09 ± 0.02 µM. For the same compound, the “effects on KCNQ5” value [3] was “no effects”, the EC50 ([4]; read-out: EC50, KCNQ2/3 activation) was 0.061 ± 0.042 µM and the “KCNQ4 activation and deactivation rates” value ([5]; 30 µM) was “speeded KCNQ2 and KCNQ4 activation and slowed their deactivation”. For the same compound, the EC50 ([5]; ΔV0.5act, read-out: EC50, KCNQ4 activation) was 0.049 ± 0.012 µM, the “KCNQ2 activation and deactivation rates” value ([6]; 4FPG 30 µM, 2FPG 100 µM) was “speeded KCNQ2 and KCNQ4 activation and slowed their deactivation” and the EC50 ([6]; wild-type KCNQ2, ΔV0.5act, read-out: EC50, KCNQ2 activation) was 0.069 ± 0.031 µM.
In the case of `NCCCC(=O)O` [GABA, γ-aminobutyric acid, reference compound], the “activation of KCNQ3” value [7] is given as “activate only KCNQ3 and KCNQ5”, the “[3H]GABA binding to KCNQ3*” value [8] is given as “bound” and the “effects on KCNQ4” value [5] is given as “unable to open”. For the same compound, the “activation of KCNQ5” value [9] was “activate only KCNQ3 and KCNQ5”.
For `NCC1(CC(=O)O)CCCCC1` [gabapentin], the “activation of KCNQ3” value [7] is given as “activate only KCNQ3 and KCNQ5”, the “activation of KCNQ2” value [10] is given as “not KCNQ2” and the “activation of KCNQ5” value [9] is given as “activate only KCNQ3 and KCNQ5”.
For `NCC(=O)O` [glycine, reference compound], the “binding of tritiated ligand to wild-type KCNQ2/3” value ([11]; CPM over 30 min) was “did not”, the “inhibition of GABA binding to wild-type KCNQ2/3” value ([11]; cold glycine 100 µM) was “did not inhibit GABA binding” and the “effects on KCNQ3*” value [1] was “no effects”. The “effects on KCNQ5” value [3] was “no effects”, the “activation of KCNQ2/3” value [4] was “nor does it activate KCNQ2/3; also recorded: no effect” and the “effects on KCNQ4” value [5] was “unable to open”. For the same compound, the “effects on KCNQ2” value ([6]; dose response) was “unable to open” and the “activation of GLRA1” value [12] was “robust activation”.
For `CCOC(=O)Nc1ccc(NCc2ccc(F)cc2)cc1N` [retigabine, reference compound], the “effect on nonfunctional KCNQ3*-R242A” value [13] is listed as “awakened neither by 3FMSG nor retigabine”, the EC50 ([4]; EC50, KCNQ2/3 activation) is listed as 6.9 µM and 6.87 µM and the “activation of KCNQ1” value [14] is listed as “does not activate KCNQ1”.
